Data on four molecules can be found in US20220281888A1, “BICYCLIC CARBOXYLATES AS MODULATORS OF TRANSPORTERS AND USES THEREOF” (NIROGY THERAPEUTICS, INC., priority 2019, published 2022).

The subject of test [1] is panel of solid and haematological tumor cell lines (e.g., Hs578t, SiHa, MDA-MB-231). The experiment in a line: MTS cell proliferation assay. In kind it is cell-based. The settings on record: 72-96 hours incubation, 10 mM lactate medium or RPMI 1640 medium, cell line not given, read-out: Cytotoxicity [IC50: μM]. The protocol:
The anti-proliferation effect of MCT inhibition was investigated across a panel of solid and haematological tumor cell lines. Cells were routinely cultured in their appropriate growth medium. On day 1, between 10,000-25,000 cells/well (e.g., Hs578t: 15,000 cells/well, SiHa: 10,000 cells/well, and MDA-MB-231: 25,000 cells/well) were plated into 96-well plates. 100 μL of phosphate buffered saline solution was added to the external wells to prevent media evaporation. Plates were incubated in growth medium overnight at 37° C. in the presence of 5% CO2. On day 2, dry weight compound stocks were dissolved to a concentration of 10 mM in 100% DMSO. Compounds were further diluted in the assay medium; 10 mM lactate medium (without glucose, pyruvate, and glutamine) or RPMI 1640 medium (without pyruvate and glutamine) to generate a final dose range of 1 nM to 10 μM. Growth medium in the 96-well plate was replaced with the assay medium (10 mM lactate medium or RPMI medium or appropriate medium), and compounds were added to each well in the plate at different concentrations via serial dilution or pre-prepared solutions in assay medium. […] The absorbance of the plates was read on a Spectramax M5e plate reader using […] measurement wavelength. Dose response curves were plotted and IC50 values were calculated using GraphPad Prism. […]

Test [2] relates to monocarboxylate transporters. In words: Lactate detection assay in tumor cell lines. The class given is cell-based. The settings on record: intracellular lactate, Lactate-glo kit, 24 hours incubation; cell line not stated. The protocol: Cells are maintained in their appropriate growth medium (RPMI medium with 2 g/L glucose, 2 mM L-glutamine supplemented with 10% FBS and P/S (growth medium). 15,000-25,000 cells were seeded into white 96-well plates in growth medium and incubated for 24 hours at 37° C. and 5% CO2. A duplicate plate was also seeded for normalization by an MTS assay. Dry weight compound stocks were dissolved to a concentration of 10 mM in 100% DMSO. Compounds were further diluted in the assay medium (Lactate media: 10 mM lactate, 5% FBS, and 1×P/S; Glucose media: RPMI, 5% FBS, and 1×P/S). Growth media was changed 24 hours later to assay medium containing 10 μM compound or vehicle (DMSO) control and incubated for 24 hours. Conditioned media was collected and the cells were washed in 200 μL ice-cold PBS. […] After a 5 minute incubation, 12.5 μL Neutralization solution (1 M Trizma) is incubated for 1 minute. Intracellular lactate measurements were performed using a Lactate-glo kit (Promega). Briefly, the lactate detection reagent is mixed immediately before use and 50 μL is pipetted into each well and incubated at room temperature for 1 hour. Lactate is oxidized by enzymatic reactions to generate light. The luminescence is recorded using a Spectramax M5e plate reader and the concentration of lactate is determined using a known concentration of spiked lactate in PBS using GraphPad Prism.

With `COc1cc(Cl)ccc1NC(=O)N(C)c1cc2oc(=O)c(C(=O)O)cc2s1` [Example 18, 2-(3-(4-chloro-2-methoxyphenyl)-1-methylureido)-5-oxo-5H-thieno[3,2-b]pyran-6-carboxylic acid], in test [1], the IC50 was below 1 µM.
Regarding `CCOc1ccccc1NC(=O)N(C)c1cc2oc(=O)c(C(=O)O)cc2s1` [Example 10, 2-(3-(2-ethoxyphenyl)-1-methylureido)-5-oxo-5H-thieno[3,2-b]pyran-6-carboxylic acid], the IC50 in test [2] was below 1 µM.
As for `CN(C(=O)Nc1ccc(Cl)c(Cl)c1)c1cc2oc(=O)c(C(=O)O)cc2s1` [Example 39, 2-(3-(3,4-dichlorophenyl)-1-methylureido)-5-oxo-5H-thieno[3,2-b]pyran-6-carboxylic acid], in test [1], the IC50 is below 1 µM.
`CN(C(=O)NC1CCCCC1)c1cc2oc(=O)c(C(=O)O)cc2s1` [Example 7, 2-(3-cyclohexyl-1-methylureido)-5-oxo-5H-thieno[3,2-b]pyran-6-carboxylic acid] yielded an IC50 in test [2] below 1 µM.

Usually IC50 stands for the midpoint of a concentration-inhibition curve.
